Reference: patent US10793563B2, “GCN2 inhibitors and uses thereof” (Merck Patent GmbH, priority 2018, dated 2020)

What follows are compounds tested against GCN2 kinase (Homo sapiens (Human), UniProt Q9P2K8) (assay: GCN2 Enzyme Inhibition Assay (Transcreener ADP2 fluorescence polarization)). Conditions: 280 μM ATP, 200 μM (RS)7 peptide, 4 nM GCN2, 25° C.
Format: biochemical
Procedure, shortened: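 At 25 °C, GCN2 kinase (typical final concentration 4 nM) and (RS)7 peptide in Tris-HCl pH 7.5 buffer with MgCl2, NaCl and DTT were preincubated with compound for 10 min, then ATP was added for a 1 h reaction. ADP was read by FP with antibody/Alexa633 tracer. Non-linear tight-binding analysis gave IC50 and apparent Ki.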

Sequence of GCN2 kinase (Q9P2K8 whole entry): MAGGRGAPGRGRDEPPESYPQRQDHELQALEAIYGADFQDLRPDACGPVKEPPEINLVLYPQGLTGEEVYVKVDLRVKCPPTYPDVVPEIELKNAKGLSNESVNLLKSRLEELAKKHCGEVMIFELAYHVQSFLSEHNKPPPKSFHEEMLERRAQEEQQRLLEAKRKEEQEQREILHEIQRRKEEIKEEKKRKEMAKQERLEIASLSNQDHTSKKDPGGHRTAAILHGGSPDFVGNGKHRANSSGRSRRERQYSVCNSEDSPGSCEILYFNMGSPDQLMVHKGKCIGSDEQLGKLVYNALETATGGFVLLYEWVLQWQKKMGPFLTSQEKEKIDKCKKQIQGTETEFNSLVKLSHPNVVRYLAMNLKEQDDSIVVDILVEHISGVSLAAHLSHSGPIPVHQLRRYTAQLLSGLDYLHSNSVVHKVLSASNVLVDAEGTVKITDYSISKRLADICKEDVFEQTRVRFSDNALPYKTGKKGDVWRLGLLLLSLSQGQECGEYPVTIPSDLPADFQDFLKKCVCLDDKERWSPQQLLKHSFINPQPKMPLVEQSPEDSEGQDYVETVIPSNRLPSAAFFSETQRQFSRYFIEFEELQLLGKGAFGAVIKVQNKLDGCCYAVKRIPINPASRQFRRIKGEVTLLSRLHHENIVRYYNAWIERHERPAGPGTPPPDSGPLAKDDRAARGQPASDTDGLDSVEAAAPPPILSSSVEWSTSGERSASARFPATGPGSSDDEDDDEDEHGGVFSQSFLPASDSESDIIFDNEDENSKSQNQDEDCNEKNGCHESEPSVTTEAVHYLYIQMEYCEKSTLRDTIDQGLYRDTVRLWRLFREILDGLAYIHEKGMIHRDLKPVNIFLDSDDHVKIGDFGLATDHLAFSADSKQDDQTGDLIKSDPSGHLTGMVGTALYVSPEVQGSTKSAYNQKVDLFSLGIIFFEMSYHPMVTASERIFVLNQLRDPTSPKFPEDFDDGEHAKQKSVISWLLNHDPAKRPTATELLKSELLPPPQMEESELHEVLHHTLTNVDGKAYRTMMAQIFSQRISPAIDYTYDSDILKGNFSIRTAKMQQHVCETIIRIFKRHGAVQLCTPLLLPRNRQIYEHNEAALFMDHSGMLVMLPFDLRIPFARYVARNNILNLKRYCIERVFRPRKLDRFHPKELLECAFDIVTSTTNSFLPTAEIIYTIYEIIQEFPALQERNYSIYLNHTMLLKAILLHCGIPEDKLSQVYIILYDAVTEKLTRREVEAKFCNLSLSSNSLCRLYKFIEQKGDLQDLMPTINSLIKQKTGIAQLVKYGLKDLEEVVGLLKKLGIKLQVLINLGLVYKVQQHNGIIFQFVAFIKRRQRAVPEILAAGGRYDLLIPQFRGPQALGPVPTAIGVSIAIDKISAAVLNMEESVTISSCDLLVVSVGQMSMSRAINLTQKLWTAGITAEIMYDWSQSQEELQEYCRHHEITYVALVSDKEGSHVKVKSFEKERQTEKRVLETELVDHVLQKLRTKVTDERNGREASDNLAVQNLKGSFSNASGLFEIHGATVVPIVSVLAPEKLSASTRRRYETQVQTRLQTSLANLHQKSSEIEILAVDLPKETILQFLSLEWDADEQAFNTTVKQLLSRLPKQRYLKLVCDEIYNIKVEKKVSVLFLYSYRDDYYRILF

Row | IC50 | SMILES
1 | 10 to 100 nM | NC(=O)C1CC12CCCN(c1ccnc(-c3cnc4ccc(Cl)cn34)n1)C2 (stereo not shown) [I-132, 5-(2-(6-chloroimidazo[1,2-a]pyridin-3-yl)pyrimidin-4-yl)-5-azaspiro[2.5]octane-1-carboxamide]
2 | 10 to 100 nM | O=C(O)C1CC(F)CN(c2ccnc(-c3cnc4ccc(C(F)(F)F)cn34)n2)C1 (stereo not shown) [I-206, 5-fluoro-1-[2-(6-trifluoromethyl-imidazo[1,2-a]pyridin-3-yl)-pyrimidin-4-yl]-piperidine-3-carboxylic acid]
3 | 10 to 100 nM | C[C@@H]1CN(c2ccnc(-c3cnc4ccc(C(F)(F)F)cn34)n2)C[C@H](C)N1C(=O)C1CC1(F)F (stereo partly drawn) [I-438, (2,2-difluorocyclopropyl)(cis-2,6-dimethyl-4-(2-(6-(trifluoromethyl)imidazo[1,2-a]pyridin-3-yl)pyrimidin-4-yl)piperazin-1-yl)methanone]
4 | 100 to 1000 nM | NC(=O)[C@H]1CN(c2ccnc(-c3cnc4ccc(C(F)(F)F)cn34)n2)CCO1 [I-151, (R)-4-(2-(6-(trifluoromethyl)imidazo[1,2-a]pyridin-3-yl)pyrimidin-4-yl)morpholine-2-carboxamide]
5 | 10 to 100 nM | CC(=O)NC1CCCN(c2ccnc(-c3cnc4ccc(C(F)(F)F)cn34)n2)C1 (stereo not shown) [I-187, N-(1-(2-(6-(trifluoromethyl)imidazo[1,2-a]pyridin-3-yl)pyrimidin-4-yl)piperidin-3-yl)acetamide]
6 | < 10 nM | C[C@H]1CN(c2ccnc(-c3cnc4ccc(C(F)(F)F)cn34)n2)C[C@@H](C(N)=O)O1 [I-264, (2S,6S)-6-methyl-4-(2-(6-(trifluoromethyl)imidazo[1,2-a]pyridin-3-yl)pyrimidin-4-yl)morpholine-2-carboxamide]
7 | 10 to 100 nM | CC1(C(N)=O)CCCN(c2ccnc(-c3cnc4ccc(C(F)(F)F)cn34)n2)C1 (stereo not shown) [I-192, 3-methyl-1-(2-(6-(trifluoromethyl)imidazo[1,2-a]pyridin-3-yl)pyrimidin-4-yl)piperidine-3-carboxamide]
8 | 10 to 100 nM | C[C@H]1[C@@H](CNS(C)(=O)=O)NCCN1c1ccnc(-c2cnc3ccc(C(F)(F)F)cn23)n1 [I-436, N-(((2R,3 S)-3-methyl-4-(2-(6-(trifluoromethyl)imidazo[1,2-a]pyridin-3-yl)pyrimidin-4-yl)piperazin-2-yl)methyl)methanesulfonamide]
9 | 100 to 1000 nM | CN(C)C(=O)COCC1CN(c2ccnc(-c3cnc4ccc(C(F)(F)F)cn34)n2)CC(C)(C)O1 (stereo not shown) [I-305, 2-((6,6-dimethyl-4-(2-(6-(trifluoromethyl)imidazo[1,2-a]pyridin-3-yl)pyrimidin-4-yl)morpholin-2-yl)methoxy)-N,N-dimethylacetamide]
10 | 100 to 1000 nM | FC(F)(F)c1ccc2ncc(-c3nccc(N4CCOC5(CNC5)C4)n3)n2c1 [I-412, 8-(2-(6-(trifluoromethyl)imidazo[1,2-a]pyridin-3-yl)pyrimidin-4-yl)-5-oxa-2,8-diazaspiro[3.5]nonane]
11 | 100 to 1000 nM | C[C@@H]1CN(c2ccnc(-c3cnc4ccc(C(F)(F)F)cn34)n2)C[C@H](C)N1C(=O)C1(C)CC1 [I-486, (cis-2,6-dimethyl-4-(2-(6-(trifluoromethyl)imidazo[1,2-a]pyridin-3-yl)pyrimidin-4-yl)piperazin-1-yl)(1-methylcyclopropyl)methanone]

Continued, compound first:

Row | SMILES | IC50
12 | Cc1[nH]ncc1[C@H]1CN(c2ccnc(-c3cnc4cc(F)c(C5CC5)cn34)n2)C[C@H](C)O1 [I-428, (2S,6S)-4-(2-(6-cyclopropyl-7-fluoroimidazo[1,2-a]pyridin-3-yl)pyrimidin-4-yl)-2-methyl-6-(5-methyl-1H-pyrazol-4-yl)morpholine] | 10 to 100 nM
13 | CC1(O)CC(C(=O)N2CCN(c3ccnc(-c4cnc5ccc(C(F)(F)F)cn45)n3)CC2c2cn[nH]c2)C1 (stereo not shown) [I-509, (2-(1H-pyrazol-4-yl)-4-(2-(6-(trifluoromethyl)imidazo[1,2-a]pyridin-3-yl)pyrimidin-4-yl)piperazin-1-yl)(3-hydroxy-3-methylcyclobutyl)methanone] | 100 to 1000 nM
14 | Cc1noc([C@@H]2CN(c3ccnc(-c4cnc5ccc(C(F)F)cn45)n3)C[C@H](C)O2)n1 [I-498, (2S,6S)-4-(2-(6-(difluoromethyl)imidazo[1,2-a]pyridin-3-yl)pyrimidin-4-yl)-2-methyl-6-(3-methyl-1,2,4-oxadiazol-5-yl)morpholine] | 10 to 100 nM
15 | Cc1oncc1C(=O)N1CCN(c2ccnc(-c3cnc4ccc(C(F)(F)F)cn34)n2)C[C@@H]1c1cn[nH]c1 [I-549, (S)-(2-(1H-pyrazol-4-yl)-4-(2-(6-(trifluoromethyl)imidazo[1,2-a]pyridin-3-yl)pyrimidin-4-yl)piperazin-1-yl)(5-methylisoxazol-4-yl)methanone] | 100 to 1000 nM
16 | Cc1nnc(C)n1[C@H]1C[C@H](C)CN(c2nccc(-c3cnc4ccc(C(F)(F)F)cn34)n2)C1 [I-465, 3-(2-((3S,5S)-3-(3,5-dimethyl-4H-1,2,4-triazol-4-yl)-5-methylpiperidin-1-yl)pyrimidin-4-yl)-6-(trifluoromethyl)imidazo[1,2-a]pyridine] | 100 to 1000 nM
17 | COCCN1C(C)CN(c2ccnc(-c3cnc4ccc(C(F)(F)F)cn34)n2)CC1C (stereo not shown) [I-335, 3-(4-(4-(2-methoxyethyl)-3,5-dimethylpiperazin-1-yl)pyrimidin-2-yl)-6-(trifluoromethyl)imidazo[1,2-a]pyridine] | 100 to 1000 nM
18 | NC(=O)C1CN(c2ccnc(-c3cnc4ccc(Cl)cn34)n2)CCO1 (stereo not shown) [I-163, 4-(2-(6-chloroimidazo[1,2-a]pyridin-3-yl)pyrimidin-4-yl)morpholine-2-carboxamide] | 10 to 100 nM
19 | C[C@H]1C[C@@H](N=S(C)(C)=O)CN(c2ccnc(-c3cnc4ccc(S(=O)(=O)NC5CC5)cn34)n2)C1 [I-319, N-cyclopropyl-3-(4-((3R,5S)-3-((dimethyl(oxo)-λ6-sulfaneylidene)amino)-5-methylpiperidin-1-yl)pyrimidin-2-yl)imidazo[1,2-a]pyridine-6-sulfonamide] | 100 to 1000 nM
20 | FC(F)(F)c1ccc2ncc(-c3ccnc(N4CCN(C[C@H]5CCCOC5)[C@@H](c5cn[nH]c5)C4)n3)n2c1 [I-542, 3-(2-((S)-3-(1H-pyrazol-4-yl)-4-(((R)-tetrahydro-2H-pyran-3-yl)methyl)piperazin-1-yl)pyrimidin-4-yl)-6-(trifluoromethyl)imidazo[1,2-a]pyridine] | < 10 nM
21 | CC(=O)N1C(C)CN(c2ccnc(-c3cnc4ccc(Cl)cn34)n2)CC1c1c[nH]nc1C (stereo not shown) [I-276, 1-(4-(2-(6-chloroimidazo[1,2-a]pyridin-3-yl)pyrimidin-4-yl)-2-methyl-6-(3-methyl-1H-pyrazol-4-yl)piperazin-1-yl)ethan-1-one] | 100 to 1000 nM
22 | Cc1nnc(C)n1[C@@H]1C[C@H](C)CN(c2nccc(-c3cnc4ccc(C(F)(F)F)cn34)n2)C1 [I-463, 3-(2-((3R,5S)-3-(3,5-dimethyl-4H-1,2,4-triazol-4-yl)-5-methylpiperidin-1-yl)pyrimidin-4-yl)-6-(trifluoromethyl)imidazo[1,2-a]pyridine] | 10 to 100 nM
23 | Fc1cccc(CN2CCN(c3ccnc(-c4cnc5ccc(C(F)(F)F)cn45)n3)CC2c2cn[nH]c2)c1 (stereo not shown) [I-458, 3-(4-(4-(3-fluorobenzyl)-3-(1H-pyrazol-4-yl)piperazin-1-yl)pyrimidin-2-yl)-6-(trifluoromethyl)imidazo[1,2-a]pyridine] | 10 to 100 nM
24 | Cc1nn(C)cc1C(=O)N1CCN(c2ccnc(-c3cnc4ccc(C(F)(F)F)cn34)n2)C[C@H]1C [I-479, (R)-(1,3-dimethyl-1H-pyrazol-4-yl)(2-methyl-4-(2-(6-(trifluoromethyl)imidazo[1,2-a]pyridin-3-yl)pyrimidin-4-yl)piperazin-1-yl)methanone] | 100 to 1000 nM
25 | N#CC1(C(=O)N2CCN(c3nccc(-c4cnc5ccc(C(F)(F)F)cn45)n3)C[C@@H]2c2cn[nH]c2)CC1 (stereo in doubt) [I-551, 1-(2-(1H-pyrazol-4-yl)-4-(4-(6-(trifluoromethyl)imidazo[1,2-a]pyridin-3-yl)pyrimidin-2-yl)piperazine-1-carbonyl)cyclopropane-1-carbonitrile] | 10 to 100 nM
26 | C[C@H]1[C@H](c2cn[nH]c2)NCCN1c1ccnc(-c2cnc3ccc(C(F)(F)F)cn23)n1 [I-535, 3-(4-((2S,3 S)-2-methyl-3-(1H-pyrazol-4-yl)piperazin-1-yl)pyrimidin-2-yl)-6-(trifluoromethyl)imidazo[1,2-a]pyridine] | 100 to 1000 nM
27 | Cc1noc(C)c1C(=O)N1CCN(c2ccnc(-c3cnc4ccc(C(F)(F)F)cn34)n2)CC1c1cn[nH]c1 (stereo not shown) [I-519, (2-(1H-pyrazol-4-yl)-4-(2-(6-(trifluoromethyl)imidazo[1,2-a]pyridin-3-yl)pyrimidin-4-yl)piperazin-1-yl)(3,5-dimethylisoxazol-4-yl)methanone] | 100 to 1000 nM
28 | Cc1nn(C)cc1[C@H]1C[C@H](C)CN(c2nccc(-c3cnc4ccc(C(F)(F)F)cn34)n2)C1 [I-139, 3-(2-((3R,5S)-3-(1,3-dimethyl-1H-pyrazol-4-yl)-5-methylpiperidin-1-yl)pyrimidin-4-yl)-6-(trifluoromethyl)imidazo[1,2-a]pyridine] | 100 to 1000 nM

Same assay, conditions: Ki(app); 280 μM ATP, 200 μM (RS)7 peptide, 4 nM GCN2, 25° C.

Row | SMILES | Ki
29 | CC1CC(C(N)=O)C(C)N(c2ccnc(-c3cnc4cc(F)c(Cl)cn34)n2)C1 (stereo not shown) [I-52, 1-[2-(6-Chloro-7-fluoro-imidazo[1,2-a]pyridin-3-yl)pyrimidin-4-yl]-2,5-dimethyl-piperidine-3-carboxamide] | < 10 nM
30 | FC(F)(F)c1ccc2ncc(-c3nccc(N4CCCC(c5cn[nH]c5)C4)n3)n2c1 (stereo not shown) [I-101, 4-[3-(1H-pyrazol-4-yl)piperidin-1-yl]-2-[6-(trifluoromethyl)imidazo[1,2-a]pyridin-3-yl]pyrimidine] | < 10 nM
31 | Cc1noc([C@@H]2CN(c3ccnc(-c4cnc5ccc(C(F)(F)F)cn45)n3)C[C@H](C)O2)n1 (stereo in doubt) [I-89, 2-methyl-6-(3-methyl-1,2,4-oxadiazol-5-yl)-4-{2-[6-(trifluoromethyl)imidazo[1,2-a]pyridin-3-yl]pyrimidin-4-yl}morpholine] | 10 to 100 nM
